We go through 9 compounds from patent EP4471048A1, “PEPTIDE INHIBITORS OF INTERLEUKIN-23 RECEPTOR” (Zealand Pharma A/S, priority 2023, dated 2024).

For orientation: IC50 means the midpoint of a concentration-inhibition curve.

Where a SMILES comes first, the peptide text is derived from it. Bridges are numbered along the chain shown (N, C = ends). [ ]: non-standard residue; d: D form. 2Nal = N[C@@H](Cc1ccc2ccccc2c1)C(=O)O; AEF = NCCOc1ccc(C[C@H](N)C(=O)O)cc1; 3Pal = N[C@@H](Cc1cccnc1)C(=O)O; αMeL = CC(C)C[C@](C)(N)C(=O)O; Orn = NCCC[C@H](N)C(=O)O; Dab = NCC[C@H](N)C(=O)O; βAla = NCCC(=O)O

The nature of data set [1]: Peptide stability in simulated gastric fluid (SGF). It counts as in vitro ADME. Particulars: pig, simulated gastric fluid (SGF) with porcine pepsin (3.2 g/L), pH 1.2, 10 µM, 37 °C, porcine pepsin; for remaining at 1 h, 10 µM: pH 1.2, 1 h, read-out: SGF (% remaining 1 h); for remaining at 4 h, 10 µM: pH 1.2, 4 h, read-out: SGF (% remaining 4 h). An outline of the steps: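 Peptide incubated at 37 °C with gentle shaking in SGF (NaCl, pH 1.2). Samples centrifuged, diluted and analysed by LC-HRMS; percent remaining at each timepoint from absolute peak areas relative to time zero, with 4 h as the reference point.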

A further data set deals with T1, human IL-23R (Homo sapiens, UniProt Q5VWK5).
T1 sequence (Q5VWK5 22-629): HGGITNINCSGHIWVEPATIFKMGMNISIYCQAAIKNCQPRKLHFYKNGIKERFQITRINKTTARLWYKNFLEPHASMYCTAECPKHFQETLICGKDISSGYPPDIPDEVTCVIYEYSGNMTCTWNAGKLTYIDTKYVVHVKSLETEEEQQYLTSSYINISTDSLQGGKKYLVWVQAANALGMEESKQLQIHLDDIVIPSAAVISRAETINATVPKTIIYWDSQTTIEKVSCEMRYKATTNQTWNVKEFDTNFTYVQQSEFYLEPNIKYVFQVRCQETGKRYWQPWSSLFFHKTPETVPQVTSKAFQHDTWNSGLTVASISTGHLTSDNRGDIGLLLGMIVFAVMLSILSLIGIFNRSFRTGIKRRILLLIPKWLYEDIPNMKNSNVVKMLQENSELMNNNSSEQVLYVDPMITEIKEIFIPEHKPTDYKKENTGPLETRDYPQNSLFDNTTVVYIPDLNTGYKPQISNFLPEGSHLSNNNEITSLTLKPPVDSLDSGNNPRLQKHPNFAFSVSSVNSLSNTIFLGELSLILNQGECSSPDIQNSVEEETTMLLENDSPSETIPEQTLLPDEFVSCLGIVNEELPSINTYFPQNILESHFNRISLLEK
As to the kind of experiment: biochemical. Particulars: for Emax: read-out: % displacement (hIL-23R NIuc). In short, it runs like this:
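Membranes from HEK293 cells stably expressing Nluc-tagged human IL-23R were incubated 2 h at room temperature with test compound and a fluorophore-labelled tracer. After substrate addition, loss of BRET (TAMRA over luciferase emission) reported tracer displacement. A 4PL fit gave IC50 values.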

Data set [2] can be described thus: Peptide stability in simulated intestinal fluid (SIF). Particulars: pig, 37 °C, porcine pancreatin; for remaining at 1 h, 10 µM: pH 6.8, 1 h; for remaining at 4 h, 10 µM: pH 6.8, 4 h, read-out: SIF (% remaining 4 h). It is filed as in vitro ADME. An outline of the steps:
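Peptides were incubated at 37 °C with gentle shaking in pH 6.8 potassium phosphate SIF containing porcine pancreatin (10 g/L). Supernatants were analysed by LC-HRMS. Percent remaining at each timepoint, including 4 h, was calculated relative to time zero from absolute peak areas.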

Turning to `CNC(=O)[C@H](Cc1cccnc1)NC(=O)[C@H](CCN)NC(=O)[C@@H]1CCC(=O)NCCCC[C@@H]2NC(=O)CC[C@H](NC(=O)[C@H](CCC(N)=O)NC(=O)[C@H](Cc3c[nH]c4ccccc34)NC(=O)CCNC2=O)C(=O)N[C@@H](Cc2cccnc2)C(=O)N[C@@H](Cc2ccc3ccccc3c2)C(=O)N[C@@](C)(CC(C)C)C(=O)N1` [Compound 83, K(1c)(6c)^†[3-Aminopropanoyl]WQE(6c)[3-(3-Pyridyl)-Ala][2-Nal][2-Me-Leu]E(1c)[Dab][3-(3-Pyridyl)-Ala]-[NHMe]], in data set [1], the fraction remaining at 1 h, 10 µM is 106% and the fraction remaining at 4 h, 10 µM is 97%. For the same compound, at human IL-23R, the IC50 is 0.38 nM and the Emax was determined as 101%. In data set [2], the share remaining at 1 h, 10 µM is 94% and the share remaining at 4 h, 10 µM was 86%.
For the compound `CNC(=O)[C@H](Cc1cccnc1)NC(=O)[C@H](CCN)NC(=O)[C@@H]1CCC(=O)NCCCC[C@@H]2NC(=O)CC[C@H](NC(=O)[C@H](CCC(N)=O)NC(=O)[C@H](Cc3c[nH]c4ccccc34)NC(=O)CCNC2=O)C(=O)N[C@@H](Cc2ccccn2)C(=O)N[C@@H](Cc2ccc3ccccc3c2)C(=O)N[C@@](C)(CC(C)C)C(=O)N1` [Compound 84, K(1c)(6c)^†[3-Aminopropanoyl]WQE(6c)[3-(2-Pyridyl)-Ala][2-Nal][2-Me-Leu]E(1c)[Dab][3-(3-Pyridyl)-Ala]-[NHMe]], in data set [1], the fraction remaining at 1 h, 10 µM was 107% and the share remaining at 4 h, 10 µM is 103%. At human IL-23R, half-maximal inhibition (IC50) required 0.11 nM and the Emax came to 97%. For the same compound, in data set [2], the fraction remaining at 1 h, 10 µM is 92% and the amount remaining at 4 h, 10 µM is 82%.
For `CNC(=O)[C@H](Cc1cccnc1)NC(=O)[C@H](CCN)NC(=O)[C@@H]1CCC(=O)NCCCC[C@@H]2NC(=O)CC[C@H](NC(=O)[C@H](CCC(N)=O)NC(=O)[C@H](Cc3c[nH]c4ccccc34)NC(=O)CCNC2=O)C(=O)N[C@@H](Cc2ccncc2)C(=O)N[C@@H](Cc2ccc3ccccc3c2)C(=O)N[C@@](C)(CC(C)C)C(=O)N1` [Compound 85, K(1c)(6c)^†[3-Aminopropanoyl]WQE(6c)[3-(4-Pyridyl)-Ala][2-Nal][2-Me-Leu]E(1c)[Dab][3-(3-Pyridyl)-Ala]-[NHMe]], in data set [1], the share remaining at 1 h, 10 µM is 109% and the fraction remaining at 4 h, 10 µM was 110%. Also, on human IL-23R, the IC50 was 0.17 nM and the Emax was 97%. Besides, in data set [2], the fraction remaining at 1 h, 10 µM was 103% and the fraction remaining at 4 h, 10 µM was 85%.
Turning to `CNC(=O)[C@H](Cc1cccnc1)NC(=O)[C@H](Cc1cnc[nH]1)NC(=O)[C@@H]1CCC(=O)NCCCC[C@@H]2NC(=O)CC[C@H](NC(=O)[C@H](CCC(N)=O)NC(=O)[C@H](Cc3c[nH]c4ccccc34)NC(=O)CCNC2=O)C(=O)N[C@@H](Cc2ccc(OCCN)cc2)C(=O)N[C@@H](Cc2ccc3ccccc3c2)C(=O)N[C@@](C)(CC(C)C)C(=O)N1` [Compound 86, K(1c)(6c)^†[3-Aminopropanoyl]WQE(6c)[Y(2-aminoethoxy)][2-Nal][2-Me-Leu]E(1c)H[3-(3-Pyridyl)-Ala]-[NHMe]], in data set [1], the amount remaining at 1 h, 10 µM was 94% and the share remaining at 4 h, 10 µM is 111%. On human IL-23R, the “% displacement (hIL-23R NIuc)” value is on record as 101% and half-maximal inhibition (IC50) required 0.049 nM. In addition, in data set [2], the amount remaining at 1 h, 10 µM is 77% and the share remaining at 4 h, 10 µM is 36%.
Turning to `CNC(=O)[C@H](Cc1cccnc1)NC(=O)[C@H](Cc1cccnc1)NC(=O)[C@@H]1CCC(=O)NCCCC[C@@H]2NC(=O)CC[C@H](NC(=O)[C@H](CCC(N)=O)NC(=O)[C@H](Cc3c[nH]c4ccccc34)NC(=O)CCNC2=O)C(=O)N[C@@H](Cc2ccc(OCCN)cc2)C(=O)N[C@@H](Cc2ccc3ccccc3c2)C(=O)N[C@@](C)(CC(C)C)C(=O)N1` [Compound 87, K(1c)(6c)^†[3-Aminopropanoyl]WQE(6c)[Y(2-aminoethoxy)][2-Nal][2-Me-Leu]E(1 c)[3-(3-Pyridyl)-Ala][3-(3-Pyridyl)-Ala]-[NHMe]], in data set [1], the amount remaining at 1 h, 10 µM is 87% and the share remaining at 4 h, 10 µM was 89%. For the same compound, at human IL-23R, the “% displacement (hIL-23R NIuc)” value is reported as 103% and the 50% inhibitory concentration (IC50) amounted to 0.039 nM. For the same compound, in data set [2], the amount remaining at 1 h, 10 µM is 1% and the fraction remaining at 4 h, 10 µM is 1%.
Regarding `CNC(=O)[C@H](Cc1cccnc1)NC(=O)[C@H](CCN)NC(=O)[C@@H]1CCC(=O)NCCC[C@@H]2NC(=O)CC[C@H](NC(=O)[C@H](CCC(N)=O)NC(=O)[C@H](Cc3c[nH]c4ccccc34)NC(=O)CCNC2=O)C(=O)N[C@@H](Cc2ccc(OCCN)cc2)C(=O)N[C@@H](Cc2ccc3ccccc3c2)C(=O)N[C@@](C)(CC(C)C)C(=O)N1` [Compound 91, [Orn](1c)(6c)^†[3-Aminopropanoyl]WQE(6c)[Y(2-aminoethoxy)][2-Nal][2-Me-Leu]E(1c)[Dab][3-(3-Pyridyl)-Ala]-[NHMe]] ([Orn][βAla]WQE[AEF][2Nal][αMeL]E[Dab][3Pal]-NHMe; lactam 1-9, N-5), in data set [1], the amount remaining at 1 h, 10 µM is 116% and the fraction remaining at 4 h, 10 µM is 115%. Moreover, at human IL-23R, the IC50 came out at 0.35 nM and the Emax stood at 100%. For the same compound, in data set [2], the share remaining at 1 h, 10 µM was 98% and the fraction remaining at 4 h, 10 µM was 57%.
Take `CC[C@H](C)[C@H]1CC(=O)N[C@@H](Cc2c[nH]c3ccccc23)C(=O)N[C@@H](CCC(N)=O)C(=O)N[C@H]2CCC(=O)N[C@@H](CCCCNC(=O)CC[C@@H](C(=O)N[C@@H](CCN)C(=O)N[C@@H](Cc3cccnc3)C(=O)NC)NC(=O)[C@](C)(CC(C)C)NC(=O)[C@H](Cc3ccc4ccccc4c3)NC(=O)[C@H](Cc3ccc(OCCN)cc3)NC2=O)C(=O)N1` [Compound 96, K(1c)(6c)^†[beta-hlle]WQE(6c)[Y(2-aminoethoxy)][2-Nal][2-Me-Leu]E(1c)[Dab][3-(3-Pyridyl)-Ala]-[NHMe]]: in data set [1], the amount remaining at 1 h, 10 µM was 105% and the fraction remaining at 4 h, 10 µM is 105%. For the same compound, at human IL-23R, half-maximal inhibition (IC50) required 0.03 nM and the Emax was determined as 91%. For the same compound, in data set [2], the fraction remaining at 1 h, 10 µM is 103% and the fraction remaining at 4 h, 10 µM is 105%.
Take `CNC(=O)[C@H](Cc1cccnc1)NC(=O)[C@H](CCN)NC(=O)[C@@H]1CCC(=O)NCCCC[C@@H]2NC(=O)CC[C@H](NC(=O)[C@H](CCC(N)=O)NC(=O)[C@H](Cc3c[nH]c4ccccc34)NC(=O)CCCNC2=O)C(=O)N[C@@H](Cc2ccc(OCCN)cc2)C(=O)N[C@@H](Cc2ccc3ccccc3c2)C(=O)N[C@@](C)(CC(C)C)C(=O)N1` [Compound 98, K(1c)(6c)^†[4-Aminobutanoyl]WQE(6c)[Y(2-aminoethoxy)][2-Nal][2-Me-Leu]E(1c)[Dab][3-(3-Pyridyl)-Ala]-[NHMe]]: in data set [1], the fraction remaining at 1 h, 10 µM was 101% and the fraction remaining at 4 h, 10 µM was 96%. For the same compound, on human IL-23R, the “% displacement (hIL-23R NIuc)” value was 101% and the IC50 was 0.024 nM. Also, in data set [2], the amount remaining at 1 h, 10 µM was 88% and the share remaining at 4 h, 10 µM is 58%.
On to `CNC(=O)[C@H](Cc1cccnc1)NC(=O)[C@H](CCN)NC(=O)[C@@H]1CCC(=O)N[C@H]2CCCCNC(=O)CC[C@H](NC(=O)[C@H](CCC(N)=O)NC(=O)[C@H](Cc3c[nH]c4ccccc34)NC(=O)CNC2=O)C(=O)N[C@@H](Cc2ccc(OCCN)cc2)C(=O)N[C@@H](Cc2ccc3ccccc3c2)C(=O)N[C@@](C)(CC(C)C)C(=O)N1` [Compound 104, [iso-Lys](1c)^†(6c)GWQE(6c)[Y(2-aminoethoxy)][2-Nal][2-Me-Leu]E(1c)[Dab][3-(3-Pyridyl)-Ala]-[NHMe]], for which, in data set [1], the amount remaining at 1 h, 10 µM was 100% and the amount remaining at 4 h, 10 µM is 106%. Also, on human IL-23R, half-maximal inhibition (IC50) required 0.5 nM and the Emax came out at 101%. Also, in data set [2], the share remaining at 1 h, 10 µM is 106% and the amount remaining at 4 h, 10 µM was 89%.
